Results as given in US5071988A, “Substituted benzoylbenzene-, biphenyl- and 2-oxazole-alkanoic acid derivatives” (American Home Products Corporation, priority 1991, dated 1991).
Like-named read-outs stand apart in the source and are kept apart here.

Key:
TxB2 = assay: reverse passive Arthus pleurisy assay, TxB2; format: in vivo, rat (male Lewis); settings: for ED50 TxB2 / ED50: 5 min; for ED50: Rattus norvegicus, po, read-out: ED50 TxB2
Experimental: (§1) The compounds of the invention are further tested in the reverse passive Arthus pleurisy assay to evaluate their effectiveness in inflammatory mediator release and/or the fluid and cellular phases of an inflammatory response.
(§2) A reverse passive Arthus reaction is induced in the pleural cavity of male Lewis rats (150-200 g; fasted overnight prior to use) by the intravenous administration of bovine serum albumin (BSA; 4 mg/0.2 ml) followed by 30 minutes later by the injection of rabbit anti-BSA (1 mg/0.2 ml; lyophilized IgG fraction; Organon Teknika, West Chester, Pa.) into the right pleural space under halothane anesthesia. Drugs or vehicle (0.5% Tween-80) control are administered orally in a volume of 1 ml/100 g body weight at 1 hour prior to the anti-BSA. Animals are sacrificed at either the time of peak eicosanoid production (i.e. 5 minutes after anti-BSA for immunoreactive TxB2 10 minutes for immunoreactive LTB4, 20 minutes for immunoreactive LTC4) or at the time of peak neutrophil infiltration (4 hours after anti-BSA) by CO2 inhalation. The pleural cavity is then exposed, the fluid exudate removed by gentle vacuum aspiration and the volume of exudate is recorded. For the determination of cellular infiltration, the pleural cavity is rinsed with 3 ml of 0.1% EDTA in sterile saline, and the recovered wash is pooled with the exudate. Cell number is determined on a model ZBI Coulter counter. For determination of eicosanoid production, undiluted pleural exudate is microfuged and the supernatant is extracted with ethanol (8-10 times volume). Extracts are either stored at -20° C., or are evaporated to dryness under a stream of N2 and reconstituted in radioimmunoassay (RIA) buffer.
(§3) Eicosanoids are quantitated by RIA according to the procedure specified by the RIA kit manufacturer (Advanced Magnetics, Cambridge, Mass.). Briefly, 100 μl of ^3 H-labeled eicosanoid and 100 μl of specific antibody are sequentially added to 100 μl of extracted pleural exudate in BGG -phosphate buffer which contains 0.01M phosphate, 0.1% bovine gamma globulin and 0.1% sodium azide at pH 7.0. Antibody-bound eicosanoid is separated from unbound eicosanoid by the addition of 750 μl of dextran (0.4%)-coated charcoal (0.4% Norit A) containing 0.1% sodium azide. The mixture is centrifuged at 2000 RPM at 5° C. for 15 minutes to pellet the charcoal and adsorbed unbound eicosanoid. Antibody-bound labeled eicosanoid is quantitated by counting in a liquid scintillation counter, and is correlated to concentration by a standard curve.
(§4) Inflammatory cells are expressed as 10^6 cells/ml, pleural exudate is expressed as ml of fluid, and the amount of eicosanoids in the pleural cavity is expressed as ng/ml of exudate. Mean±S.E.M. is determined for each group. Percent inhibition (% I) of cell number, exudate volume and eicosanoid production is calculated for vehicle-treated control groups, and the responses in drug-treated rats are then expressed as the mean % I of the control. […] Exp. Ther., 96, 99-113 (1949).

LTB4 = assay: reverse passive Arthus pleurisy assay, LTB4; format: in vivo, rat (male Lewis); settings: for ED50: Rattus norvegicus
Experimental: as §1, §2, §3, §4

Fluid Exudation = assay: reverse passive Arthus pleurisy assay, fluid exudation; format: in vivo, rat (male Lewis); settings: 1 hour prior to anti-BSA, standard drugs; for ED30 Fluid Exudation: p.o.; for ED30: Rattus norvegicus, po
Experimental: as §1, §2, §4

Cellular Influx = assay: reverse passive Arthus pleurisy assay, cellular influx; format: in vivo, rat (male Lewis); settings: Rattus norvegicus, po, 4 h, 1 hour prior to anti-BSA; standard drugs
Experimental: as §1, §2, §4

[1] = test system: LTB4 synthesis by rat glycogen-elicited polymorphonuclear leukocytes (PMN); assay: inhibition of LTB4 synthesis by rat glycogen-elicited polymorphonuclear leukocytes (PMN); format: cell-based, rat (female Wistar); settings: Leukocyte
Source text: This is especially true with respect to 5,12-diHETE, which is also denoted as LTB4 [see Ford-Hitchinson, J. Roy. […] Med., 74, 831 (1981)]. Compounds which inhibit the PLA2 -mediated release of arachidonic acid thereby effectively prevent the oxidation of arachidonic acid to the various leukotriene products via the lipoxygenase cascade. Accordingly, the specificity of action of PLA2 inhibitors can be determined by the activity of test compounds in this assay, which measures the ability of compounds to inhibit the synthesis of LTB4 by rat glycogen-elicited polymorphonuclear leukocytes (PMN) in the presence of exogenous substrate.
The assay is carried out as follows:
(§5) Rat polymorphonuclear leukocytes (PMNs) are obtained from female Wistar rats (150-200 g) which receive an injection of 6% glycogen (10 ml i.p.). Rats are sacrificed 18-24 hours post injection by CO2 asphyxiation and the elicited cells are harvested by peritoneal lavage using physiological saline (0.9% NaCl). The exudate is centrifuged at 400 xg for 10 minutes. The supernatant fluid is discarded and the cell pellet is resuspended to a concentration of 2.0×10^7 cells/mL in HBSS containing Ca^++ and Mg^++ and 10 μM L-cysteine.
(§6) To 1 mL aliquots of cell suspension, test drugs or vehicle are added, then preincubated at 37° C. for 10 minutes. A23187 (1 μM), [^3 H]-AA (3.0 μCi/mL) and unlabeled AA (1 μM) are then added and the samples are further incubated for 10 minutes. The reaction is terminated by centrifugation and pelleting cells. Supernatants are then analyzed by HPLC analysis on a 15 cm×4.6 mm ID supelcosil LC-18 (Supelco)(3M) column, using a two solvent system at a flow rate of 1.4 mL total flow as follows:
Gradient: (system is equilibrated with Solvent A)
Percent solvent changes are accomplished in a linear fashion.
Injections: 140 μL of each supernatant is injected directly onto column and ^3 H arachidonic acid metabolites are monitored using an on-line radioactivity detector (Ramona, IN/US, Fairfield, N.J.).
Standards: 10^4 -2.0×10^4 dpm of eicosanoids of interest are injected in 90 μL EtOH cocktail.
Results are expressed as percent inhibition at a given compound dose or as an IC50 value.

[2] = test system: PGE2 synthesis by rat glycogen-elicited polymorphonuclear leukocytes (cyclooxygenase); assay: inhibition of PGE2 (cyclooxygenase product) synthesis by rat glycogen-elicited polymorphonuclear leukocytes; format: cell-based, rat (female Wistar); settings: Leukocyte; for inhibition at 0.5 µM: read-out: % Inhibition (PGE2 synthesis)
Experimental: as §5, §6
In this assay, the procedure of Example 14 is carried out as described. However, in order to determine cyclooxygenase activity, the samples are cochromatographed with authentic reference [^3 H]-PGE2.

Human Synovial PLA2 = biological target: T1, Human Synovial PLA2 (Homo sapiens, UniProt P14555); assay: in vitro isolated phospholipase A2 assay, human synovial fluid PLA2; format: biochemical; settings: read-out: % Inhibition at 10 μM HSF
T1 construct: Purified human synovial fluid; from tissue; host or cells: human synovial fluid (purified)
T1 sequence (P14555 21-144): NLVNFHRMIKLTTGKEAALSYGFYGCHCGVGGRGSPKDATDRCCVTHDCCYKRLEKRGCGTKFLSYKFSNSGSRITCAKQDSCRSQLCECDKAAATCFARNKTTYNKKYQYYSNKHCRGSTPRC
Experimental: The compounds of the invention are tested in an in vitro isolated phospholipase A2 assay to determine the ability of the test compounds to inhibit the release of arachidonic acid from an arachidonic acid-containing substrate by the action of phospholipase A2 enzyme from human and non-human sources.
Into a 15 mL polypropylene tube are added the following:
^ 6 Two human PLA2 enzymes are used:
b) Purified human synovial fluid.
Incubate the 100 μL reaction mixture for 10 minutes at 37° C. in a shaking water bath. The reaction is terminated by the addition of 2 mL tetrahydrofuran, followed by vortexing. NH2 columns (100 μg/mL--Analytichem International) are conditioned with 0.5 mL tetrahydrofuran followed by 0.5 mL tetrahydrofuran/water (2 mL:0.1 mL, v/v).
The sample is loaded onto the columns and slowly drawn through them. The hydrolyzed arachidonic acid retained in the columns is eluted therefrom with 1 mL tetrahydrofuran/glacial acetic acid (2%). The arachidonic acid is transferred to scintillation vials and quantitated by β-counting analysis. A "total counts" sample is prepared by pipetting 25 μL ^3 H-arachidonate E. coli directly into a scintillation vial to which is added 1 mL tetrahydrofuran. 10 mL aquasol (scintillation cocktail) is added to all samples.

[3] = p.o., 1 hour prior to anti-BSA, standard drugs
[4] = at 0.5 μM, negative values denote potentiation of cyclooxygenase
[5] = negative values denote potentiation of cyclooxygenase
[6] = at 10 μM, human synovial fluid, negative values denote potentiation of HSF

In the case of CN=C1CCN(c2cccc(C(F)(F)F)c2)N1 [BW540C], the “ED50 TxB2” value (TxB2; [3]) is reported as 19 mg/kg p.o and the “ED50 LTB4” value (LTB4; [3]) is reported as 30 mg/kg p.o.

For C[C@@H]1C[C@H]2[C@@H]3CCC4=CC(=O)C=C[C@]4(C)[C@@]3(F)[C@@H](O)C[C@]2(C)[C@@]1(O)C(=O)CO [Dexamethasone], the “ED30 Fluid Exudation” value (Fluid Exudation) was 0.05 mg/kg p.o and the ED30 (Cellular Influx) was 0.13 mg/kg.

Work on O=C(O)Cc1ccccc1Nc1c(Cl)cccc1Cl [Diclofenac] yielded an ED50 (TxB2) of 6 mg/kg.

In the case of CC(=O)c1ccc(-c2ccc(OCc3ccc4ccccc4n3)cc2)c([N+](=O)[O-])c1 [Example 1, 1-[2-Nitro-4'-(2-quinolinylmethoxy)-[1,1'-biphenyl]4-yl]ethanone], the inhibition at 0.5 µM [1] is reported as 95% and the inhibition at 0.5 µM [2, 4] is reported as -13%.

In the case of O=C(O)Cc1ccc(-c2ccc(OCc3ccc4ccccc4n3)cc2)c(F)c1 [Example 2, 2-Fluoro-4'-(2-quinolinylmethyoxy)-[1,1'-biphenyl]-4-acetic acid], the inhibition at 0.5 µM [1] is reported as 91% and the inhibition at 0.5 µM [2] is reported as -22%.

O=C(O)Cc1cccc(C(=O)c2ccc(OCc3ccc4ccccc4n3)cc2)c1 [Example 3, 3-[4-(2-Quinolinylmethoxy)benzoyl]benzene acetic acid] gave an inhibition at 0.5 µM [1] of 38%, an inhibition at 10 µM [1] of 87% and an inhibition at 0.5 µM [2, 4] of -8%. For the same molecule, the inhibition at 10 µM [2, 5] was 8% and the inhibition at 10 µM (Human Synovial PLA2; [6]) was 25.5%.

For O=C(O)Cc1cccc(C(=O)c2ccc(OCc3ccc4ccccc4c3)cc2)c1 [Example 4, 3-[4-(2-Naphthalenylmethoxy)benzoyl]benzene acetic acid], the inhibition at 10 µM [1] was 8%, the inhibition at 10 µM [2, 5] was -31% and the inhibition at 10 µM (Human Synovial PLA2; [6]) was 15.1%.

For O=C(O)CCc1nc(-c2ccc(OCc3ccc4ccccc4c3)cc2)c(-c2ccccc2)o1 [Example 6, 4-[4-[2-Naphthalenylmethoxy]phenyl]-5-phenyl-2-oxazole propanoic acid], the inhibition at 0.5 µM [1] was 81%, the inhibition at 10 µM [1] was 95% and the inhibition at 10 µM [2, 5] was -191%. It also gave an inhibition at 0.5 µM [2] of -12%.

With COC(=O)CCc1nc(-c2ccc(OCc3ccc4ccccc4c3)cc2)c(-c2ccccc2)o1 [Example 6A, 4-[4-[2-Naphthalenylmethoxy]phenyl]-5-phenyl-2-oxazole propanoic acid methylester] the inhibition at 0.5 µM [1] was 63%, the inhibition at 10 µM [1] was 94% and the inhibition at 0.5 µM [2, 4] was -29%. It also gave an inhibition at 10 µM [2, 5] of -79%.

In the case of Cn1c(COc2ccc(-c3nc(CCC(=O)O)oc3-c3ccccc3)cc2)nc2ccccc21 [Example 7, 4-[4-[(1-Methyl-1H-benzimidazol-2-yl)methoxy]phenyl]-5-phenyl-2-oxazole propanoic acid], the inhibition at 10 µM [1] is reported as 85%.

With O=C(O)Cc1ccc(-c2ccc(OCc3ccc4ccccc4n3)cc2)c(F)c1 [Example 9, 2-Fluoro-4'-(2-quinolinylmethoxy)[1,1'-biphenyl]-4-acetic acid, 2-amino-2-hydroxymethyl-1,3-propane diol] the ED50 (LTB4; reverse passive Arthus pleurisy, oral, read-out: ED50 (LTB4 Synthesis)) was 0.8 mg/kg.

COc1ccc2cc([C@H](C)C(=O)O)ccc2c1 [Naproxen] was tested, and the “ED50 TxB2” value (TxB2; [3]) was 0.24 mg/kg p.o, the “% Inh LTB4” value (LTB4; 4 mg/kg p.o.) was 0% and the “ED30 Fluid Exudation” value (Fluid Exudation) was 3.9 mg/kg p.o.

In the case of O=C1CCN(c2ccccc2)N1 [Phenidone], the ED50 (TxB2; [3]) is reported as 69 mg/kg, the ED50 (LTB4; po, 1 hour prior to anti-BSA, standard drugs, read-out: ED50 LTB4) is reported as 10 mg/kg and the ED30 (Fluid Exudation) is reported as 21 mg/kg. For the same molecule, the ED30 (Cellular Influx) was 23 mg/kg.

Work on CN1C(C(=O)Nc2ccccn2)=C(O)c2ccccc2S1(=O)=O [Piroxicam] yielded an ED30 (Fluid Exudation) of 1 mg/kg and an ED30 (Cellular Influx) of 3 mg/kg.

C[C@H](C(=O)O)c1ccc2cc(OCc3ccc4ccccc4n3)ccc2c1.NC(CO)(CO)CO [Wy-50,295-A] was tested, and the “% Inh TxB2” value (TxB2; 75 mg/kg p.o.) was 0%.

Molecule CC(C(=O)O)c1cccc(C(=O)c2ccccc2)c1 (stereo not drawn) [ketoprofen] has an inhibition at 10 µM (Human Synovial PLA2) of -16.9% and an ED50 (TxB2) of 0.18 mg/kg.
